Test results published in US8946438B2, “Benzamides, production thereof, and use thereof as medicaments” (Boehringer Ingelheim International GmbH, priority 2008, dated 2015).

Target: p38 MAP-kinase (Homo sapiens, UniProt Q16539)
Experiment: Enzymatic assay: inhibition of p38 MAP-kinase (phosphorylation of GST-tagged ATF2, chemoluminescence bead readout)
Format: biochemical
Settings: inhibitor 1 μM; activated p38 MAP-kinase 1 nM; 4 h preincubation; ATP 100 μM; ATF2 10 nM; read-out: % inhibitory effect at 1 μM
Procedure, shortened: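 Activated human p38 MAP-kinase (1 nM) preincubated 4 h at ambient temperature with compound at 1 μM in HEPES pH 7, MgCl2, DTT, Tween20. Then reacted 1 h with GST-ATF2 (10 nM) and ATP (100 μM). Phospho-ATF2 read by bead chemoluminescence at 520-620 nm, given as % inhibition at 1 μM versus kinase-free background.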

Chain of p38 MAP-kinase (Q16539 whole entry): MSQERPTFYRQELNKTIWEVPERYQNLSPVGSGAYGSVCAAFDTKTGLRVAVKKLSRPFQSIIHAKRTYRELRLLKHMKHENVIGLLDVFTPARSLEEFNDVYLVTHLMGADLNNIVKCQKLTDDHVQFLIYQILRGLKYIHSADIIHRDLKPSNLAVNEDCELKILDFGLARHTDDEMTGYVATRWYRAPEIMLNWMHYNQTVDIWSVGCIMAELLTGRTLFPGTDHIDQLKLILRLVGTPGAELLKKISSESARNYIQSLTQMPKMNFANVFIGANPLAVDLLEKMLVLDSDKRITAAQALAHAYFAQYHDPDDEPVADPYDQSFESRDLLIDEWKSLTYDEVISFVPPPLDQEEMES

Row | SMILES | inhibition at 1 µM
1 | CNCc1cc(Oc2cc(C(=O)Nc3cc(C(C)(C)C)cc(NS(C)(=O)=O)c3OC)ccc2C)ncn1 [8(1), N-(5-tert-butyl-3-methanesulphonylamino-2-methoxy-phenyl)-4-methyl-3-(6-methylaminomethyl-pyrimidin-4-yloxy)-benzamide] | 55.9%
2 | COc1c(NC(=O)c2ccc(C)c(Oc3cc(CN4CCNC(=O)C4)ncn3)c2)cc(C(C)(C)C)cc1NS(C)(=O)=O [8(7), N-(5-tert-butyl-3-methanesulphonylamino-2-methoxy-phenyl)-4-methyl-3-[6-(3-oxo-piperazin-1-ylmethyl)-pyrimidin-4-yloxy]-benzamide] | 94.1%
3 | COc1c(NC(=O)c2ccc(C)c(Oc3ccnc(CC4CCNCC4)c3)c2)cc(C(F)(F)C(F)(F)F)cc1NS(C)(=O)=O [5(55), N-(3-methanesulphonylamino-2-methoxy-5-pentafluoroethyl-phenyl)-4-methyl-3-(2-piperidin-4-ylmethyl-pyridin-4-yloxy)-benzamide] | 99.6%
4 | CNCc1nccc(Oc2cc(C(=O)Nc3cc(C(C)(C)C)cc(NS(C)(=O)=O)c3OC)ccc2C)n1 [8(4), N-(5-tert-butyl-3-methanesulphonylamino-2-methoxy-phenyl)-4-methyl-3-(2-methylaminomethyl-pyrimidin-4-yloxy)-benzamide] | 66%
5 | COc1c(NC(=O)c2ccc(C)c(Oc3ccnc(N(C)C4CCNCC4)n3)c2)cc(C(C)(C)C)cc1NS(C)(=O)=O [5(14), N-(5-tert-butyl-3-methanesulphonylamino-2-methoxy-phenyl)-4-methyl-3-[2-(N-methyl-N-piperidin-4-yl-amino)-pyrimidin-4-yloxy]-benzamide] | 98.5%
6 | COc1c(NC(=O)c2ccc(C)c(Oc3ccncc3)c2)cc(C(C)(C)C)cc1NS(C)(=O)=O [Example 2, N-(5-tert-butyl-3-methanesulphonylamino-2-methoxy-phenyl)-4-methyl-3-(pyridin-4-yloxy)-benzamide] | 97.7%
7 | COc1c(NC(=O)c2ccc(Cl)c(Oc3ccnc(NC4CCNCC4)n3)c2)cc(C(C)(C)C)cc1NS(C)(=O)=O [5(28), N-(5-tert-butyl-3-methanesulphonylamino-2-methoxy-phenyl)-4-chloro-3-[2-(piperidin-4-ylamino)-pyrimidin-4-yloxy]-benzamide] | 99%
8 | COc1c(NC(=O)c2ccc(C)c(Oc3ccnc(CC4CCNCC4)c3)c2)cc(C(F)(F)F)cc1NS(C)(=O)=O [5(49), N-(3-methanesulphonylamino-2-methoxy-5-trifluoromethyl-phenyl)-4-methyl-3-(2-piperidin-4-ylmethyl-pyridin-4-yloxy)-benzamide] | 99.2%
9 | COc1c(NC(=O)c2ccc(Cl)c(Oc3cc(CC4CCNCC4)ncn3)c2)cc(C(C)(C)C)cc1NS(C)(=O)=O [5(33), N-(5-tert-butyl-3-methanesulphonylamino-2-methoxy-phenyl)-4-chloro-3-(6-piperidin-4-ylmethyl-pyrimidin-4-yloxy)-benzamide] | 99.2%
10 | CCOc1c(NC(=O)c2ccc(C)c(Oc3ccnc(CC4CCNCC4)c3)c2)cc(C(C)(C)C)cc1NS(C)(=O)=O [5(45), N-(5-tert-butyl-2-ethoxy-3-methanesulphonylamino-phenyl)-4-methyl-3-(2-piperidin-4-ylmethyl-pyridin-4-yloxy)-benzamide] | 99.6%
11 | COc1c(NC(=O)c2ccc(C)c(Oc3cc(C(=O)N4CCN(C)CC4)ncn3)c2)cc(C(C)(C)C)cc1NS(C)(=O)=O [7(2), N-(5-tert-butyl-3-methanesulphonylamino-2-methoxy-phenyl)-4-methyl-3-[6-(4-methyl-piperazine-1-carbonyl)-pyrimidin-4-yloxy]-benzamide] | 96.3%
12 | COc1c(NC(=O)c2ccc(C)c(Oc3ccnc(NC4CCNC4)n3)c2)cc(C(C)(C)C)cc1NS(C)(=O)=O (stereo not drawn) [5(23), N-(5-tert-butyl-3-methanesulphonylamino-2-methoxy-phenyl)-4-methyl-3-[2-(pyrrolidin-3-ylamino)-pyrimidin-4-yloxy]-benzamide] | 98.3%
